Legend:
PDE6 enzyme = assay: Method 2A: Alternative Human Retina PDE6 Enzyme Inhibition Scintillation Proximity Assay (SPA); type: biochemical; details: Table F, WO2004096810 examples
Experimental: Lift the retina with care and locate the optic nerve. Cut through the optic nerve and transfer the retina to a small dish containing a few ml of homogenisation buffer. Gently float the retina out on the surface of the buffer and remove any obvious pigmented material from the iris. Place the retina in a second dish with clean buffer to remove last traces of pigment and then transfer to a 50 ml Corning Costar centrifuge tube (Sigma) and keep on ice. • PDE6 Isolation and Purification from Retina: Allow 2 mls of the homogenisation buffer per bovine retina and 1 ml per retina for dog and human. Homogenise using hand-held homogeniser 3×5 second bursts cooling on ice between each burst. Filter homogenate through two layers of surgical gauze. Spin at 100,000 g for 60 minutes at 4° C. […] Run through FPLC (Pharmacia FPLC LKB/FRAC-100, Pharmacia) or aliquot and store in liquid nitrogen as needed. Method 2A: Alternative Human Retina PDE6 Enzyme Inhibition Scintillation Proximity Assay (SPA)
The inhibition of PDE6 enzyme activity by a test compound also can be measured in accordance with the in vitro assay of Method 1A, but instead using semi-purified PDE6 enzyme isolated from human, bovine or canine retina in place of PDE5 enzyme. […] [3H]GMP binds to yttrium silicate SPA beads and is detected by scintillation counting.

PDE11 enzyme = target: T1, PDE11 enzyme (Homo sapiens, UniProt Q9HCR9, DUP921-921); assay: Method 3A: Alternative Human Recombinant PDE11 Enzyme Inhibition Scintillation Proximity Assay (SPA); type: biochemical; details: Table F, WO2004096810 examples
T1 construct: FLAG (N); made in house; host or cells: Sf9 insect cells (baculovirus, pFastBac)
Experimental: Incubate at 27° C. with 220 rpm shaking for 48 hours. Harvest the infected cells by pelleting at 2000 rpm for 10 minutes at 4° C. Store the infected cell pellet at −80° C. until ready for purification. Resuspend the thawed cell pellets to 1×10^7 cells/ml (=20 ml buffer consisting of 20 mM Hepes (pH7.2), 1 mM EDTA, 20 mM sucrose, 150 mM NaCl and protease inhibitor tablets). Mix thoroughly and allow to stand on ice for 10 minutes. Sonicate for 5×5 seconds, on ice. Spin the mixture at 12,000 rpm for 10 minutes at 4° C. in SS34. Store the insoluble pellet at −80° C., and proceed to the purification of the soluble material. • (b) Purification: Prepare the column (1.0 cm diameter, Kontes) by rinsing the empty column twice with TBS. Then mix beads (Anti-FLAG M2 Agarose, Sigma) with TBS and add to the column—allow the beads to settle. Wash the column with 3 column volumes of 0.1M glycine (pH3.5). […] Apply the extract to the column and allow the extract to enter by gravity flow. Reapply the flow-through. Wash the column with 15 column volumes of TBS. Elute the protein with 5×1 ml aliquots of FLAG peptide (Sigma) (i.e., 100 ug/ml in TBS). Elute the remaining protein with 1 ml 0.1M glycine, and immediately add 25 ul 1M Tris pH8 to neutralize. Method 3A: Alternative Human Recombinant PDE11 Enzyme Inhibition Scintillation Proximity Assay (SPA)

[1] = Method 11: Single Dose Pharmacokinetics and Oral Bioavailability in Male Sprague-Dawley Rat; type: in vivo; details: mean; for AUC(0-inf) / clearance / half-life / Vd / Cmax / Tmax: plasma, 2 mg/kg; for Vd: read-out: Vdss; for F: po 2 mg/kg vs iv 2 mg/kg
Experimental: Repeat testing is recommended in order to establish a valid assay test result. P. Pharmacokinetic/Pharmacodynamic Study Method 11: Single Dose Pharmacokinetics and Oral Bioavailability in Male Sprague-Dawley Rat Following Intravenous and Oral Administration
An in vivo model can be used to evaluate the single dose pharmacokinetic properties and absolute oral bioavailability of a test compound. As described more specifically below, a test compound is administered to Sprague-Dawley (SD) rats either intravenously or orally in a crossover study design and the resulting pharmacokinetic properties and oral bioavailability are measured.
Male rats are administered a 2.0 mg/kg dose orally (n=2) by gavage as a suspension (0.5% methylcellulose/0.1% Tween 80 in distilled water). After a 72 hour wash-out periond, the same rats were administered 2.0 mg/kg dose bolus intravenously (n=2) as a solution (70% PEG 400/20% 0.05 M Citrate Buffer pH 3/10% Ethanol). Serial blood samples (for plasma) are collected from each rat over a 24 hour post dose for each route. […] Pharmacokinetic parameters of a test compound are determined from the plasma concentration-time data using non-compartmental methods. • LC/MS/MS: 1) Column: Hyperso; AQUASIL C-18 2.1×20 mm, 3.0 μm; 2) Mobile phase: Aqueous Water with 0.1% Formic Acid, Orgainic: Acetonitrile; Ionization: +ESI (API 4000). MRM: m/z 494.4→m/z 394.0 (Example 261 in WO2004096810), m/z 509.44→m/z 409.80 (Example 263 in WO2004096810), m/z 495.33→m/z 395.20 (Example 262 in WO2004096810). The detection limits are 0.12 ng/mL (Example 261 in WO2004096810), 1.3 ng/mL (Example 263 in WO2004096810) and 0.11 ng/mL (Example 262 in WO2004096810).
Watson (Version 6.4.0.04) is used to calculate mean test compound concentrations, corresponding standard deviations (SD), and percent coefficient of variation (% CV), and to estimate pharmacokinetic parameters (derived by noncompartmental methods) and associated statistics (mean, SD & CV %) if applicable. (Since n=2, no SD or CV calculated ?). Concentrations below the limit of quantitation (BLQ) are reported as zero (0) and are used in the evaluation of mean concentrations and the estimation of AUC. The peak plasma concentration (Cmax) and the time to reach peak concentration (tmax) are recorded directly from individual plasma concentration-time profiles. The terminal log-linear phase of the plasma concentration-time curve is identified by linear regression of data points. The terminal half-life (t1/2) is calculated as ln(2) divided by absolute value of the slope of the terminal log-linear phase. The area under the plasma concentration-time curve from time zero to time of the last quantifiable concentration (t) [AUC(0-t)] is determined using the linear trapezoidal method. The area under the plasma concentration-time curve from time zero to infinity [AUC(0-∞)] is determined as AUC(0-t) plus the extrapolated area. The extrapolated area is determined by dividing the last observed plasma concentration by the slope of the terminal log-linear phase. Systemic plasma clearance (CL) is calculated as dose/AUC(0-∞) while the volume of distribution at steady state (Vdss) is calculated as CL×MRT, where MRT (mean residence time) is defined as AUMC(0-∞)/AUC(0-∞). The absolute PO bioavailability (F) is calculated as a ratio of the dose-normalized AUC(0-∞) of individual animal after PO administration to the dose-normalized AUC(0-∞) of individual animal after IV administration given the crossover study design.

T1 sequence (Q9HCR9 with tags, fused parts or gaps DUP921-921 limits assumed): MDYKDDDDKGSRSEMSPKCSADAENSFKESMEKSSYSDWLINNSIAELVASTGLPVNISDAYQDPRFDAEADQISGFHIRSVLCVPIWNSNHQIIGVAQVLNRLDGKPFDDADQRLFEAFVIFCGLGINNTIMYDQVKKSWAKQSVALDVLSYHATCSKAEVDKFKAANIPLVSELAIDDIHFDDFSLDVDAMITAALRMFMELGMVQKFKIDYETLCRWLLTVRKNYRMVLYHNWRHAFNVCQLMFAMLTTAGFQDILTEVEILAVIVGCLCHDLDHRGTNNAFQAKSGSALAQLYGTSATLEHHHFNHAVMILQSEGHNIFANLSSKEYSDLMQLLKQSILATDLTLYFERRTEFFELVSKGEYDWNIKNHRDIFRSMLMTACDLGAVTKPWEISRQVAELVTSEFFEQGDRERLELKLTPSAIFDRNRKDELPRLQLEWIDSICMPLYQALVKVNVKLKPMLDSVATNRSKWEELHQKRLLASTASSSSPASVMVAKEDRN

SMILES | IC50 (PDE6 enzyme) | IC50 (PDE11 enzyme) | AUC(0-inf) ([1]; iv) | clearance ([1]; iv) | half-life ([1]; iv) | Vd ([1]; iv) | AUC(0-inf) ([1]; po) | Cmax ([1]; po) | Tmax ([1]; po) | half-life ([1]; po) | F [1]
Cc1ccnc(Nc2nc(N3CCC(C(=O)O)CC3)nc3c(C)nn(CCOCC(F)(F)F)c23)c1 [WO2004096810 Example 261] | 0.11 µM | 0.585 µM | 19000 ng·h/mL | 1.75 mL/min/kg | 6.4 h | 0.564 L/kg | 20000 ng·h/mL | 2350 ng/mL | 0.67 h | 6.7 h | 105%
Cc1cc(Nc2nc(N3CCC(C(=O)O)CC3)nc3c(C)nn(CCOCC(F)(F)F)c23)ncn1 [WO2004096810 Example 262] | 0.0663 µM | 0.608 µM | 440 ng·h/mL | 76.3 mL/min/kg | 5.5 h | 6.11 L/kg | 280 ng·h/mL | 87.1 ng/mL | 0.67 h | 3.4 h | 63.9%
CCc1nn(CCOCC(F)(F)F)c2c(Nc3cc(C)ncn3)nc(N3CCC(C(=O)O)CC3)nc12 [WO2004096810 Example 263] | 0.0306 µM | 0.384 µM | 555 ng·h/mL | 60.1 mL/min/kg | 4.5 h | 5.07 L/kg | 329 ng·h/mL | 102 ng/mL | 0.33 h | 3.8 h | 60.0%

From patent US8518956B2, “1-(1-(2-ethoxyethyl)-3-ethyl-7-(4-methylpyridin-2-ylamino)-1H-pyrazolo[4,3-d]pyrimidin-5-yl) piperidine-4-carboxylic acid and salts thereof” (priority 2005, dated 2013)
